Reference: patent US4309554A, “3-(2-Thiophenesulfonyl)-2-halopropanenitriles” (The Dow Chemical Company, priority 1980, dated 1982)
≈ marks a conversion by molar mass, not a printed value.

Experiments:
Assay type in all cases: cell-based
P. pullulans = experiment: in vitro agar Petri dish dilution test, MIC against P. pullulans; conditions: P. pullulans (Pp)
Text: (§1) The compounds have antimicrobial utility. In conventional in vitro agar Petri dish dilution tests for determining antimicrobial activity, the compounds of the Examples had minimum inhibitory concentrations (MIC) against the indicated organisms in parts per million (ppm) as follows: […]

S. aureus = experiment: in vitro agar Petri dish dilution test, MIC against S. aureus; conditions: Staphylococcus aureus; S. aureus (Sa)
Text: as §1

T. mentagrophytes = experiment: in vitro agar Petri dish dilution test, MIC against T. mentagrophytes; conditions: Trichophyton mentagrophytes; T. mentagrophytes (Tm)
Text: as §1

C albicans = experiment: in vitro agar Petri dish dilution test, MIC against C albicans; conditions: C albicans (Ca)
Text: as §1

[1] = tested on: Trichoderm Sp. Madison P42; experiment: in vitro agar Petri dish dilution test, MIC against Trichoderm Sp. Madison P42; conditions: Trichoderm Sp. Madison P42 (Tr 42)
Text: as §1

[2] = tested on: Pseudomonas Sp. Strain 10; experiment: in vitro agar Petri dish dilution test, MIC against Pseudomonas Sp. Strain 10; conditions: Pseudomonas Sp. Strain 10 (Ps 10)
Text: as §1

A. aerogenes = experiment: in vitro agar Petri dish dilution test, MIC against A. aerogenes; conditions: Klebsiella aerogenes; A. aerogenes (Aa)
Text: as §1

Ceratocystis IPS = experiment: in vitro agar Petri dish dilution test, MIC against Ceratocystis IPS; conditions: Ceratocystis IPS (CI)
Text: as §1

C. pelliculosa = experiment: in vitro agar Petri dish dilution test, MIC against C. pelliculosa; conditions: Hansenula anomala; C. pelliculosa (Cp)
Text: as §1

B. subtilis = experiment: in vitro agar Petri dish dilution test, MIC against B. subtilis; conditions: Bacillus subtilis; B. subtilis (head Be, footnote Bs)
Text: as §1

A. niger = experiment: in vitro agar Petri dish dilution test, MIC against A. niger; conditions: Aspergillus niger; A. niger (An)
Text: as §1

E. coli = experiment: in vitro agar Petri dish dilution test, MIC against E. coli; conditions: Escherichia coli; E. coli (Ec)
Text: as §1

S. typhosa = experiment: in vitro agar Petri dish dilution test, MIC against S. typhosa; conditions: S. typhosa (St)
Text: as §1

Structure (SMILES) | MIC (P. pullulans) | MIC (S. aureus) | MIC (T. mentagrophytes) | MIC (C albicans) | MIC [1] | MIC [2] | MIC (A. aerogenes) | MIC (Ceratocystis IPS) | MIC (C. pelliculosa) | MIC (B. subtilis) | MIC (A. niger) | MIC (E. coli) | MIC (S. typhosa)
N#CC(Cl)CS(=O)(=O)c1cccs1 (stereo not drawn) [Example 1, 3-(2-Thiophenesulfonyl)-2-chloropropane nitrile] | 10 µg/mL (≈ 42.4 µM) | 100 µg/mL (≈ 424 µM) | 10 µg/mL (≈ 42.4 µM) | 10 µg/mL (≈ 42.4 µM) | 100 µg/mL (≈ 424 µM) | 100 µg/mL (≈ 424 µM) | 100 µg/mL (≈ 424 µM) | 100 µg/mL (≈ 424 µM) | 10 µg/mL (≈ 42.4 µM) | 100 µg/mL (≈ 424 µM) | 100 µg/mL (≈ 424 µM) | 100 µg/mL (≈ 424 µM) | 
Cc1ccc(S(=O)(=O)CC(Cl)C#N)s1 (stereo not drawn) [2(a)] | 50 µg/mL (≈ 200 µM) | 50 µg/mL (≈ 200 µM) | 50 µg/mL (≈ 200 µM) | 50 µg/mL (≈ 200 µM) | 50 µg/mL (≈ 200 µM) | 500 µg/mL (≈ 2000 µM) | 50 µg/mL (≈ 200 µM) | 50 µg/mL (≈ 200 µM) | 50 µg/mL (≈ 200 µM) | 10 µg/mL (≈ 40 µM) | 50 µg/mL (≈ 200 µM) |  | 
CCCCc1ccc(S(=O)(=O)CC(Cl)C#N)s1 (stereo not drawn) [2(c)] | 50 µg/mL (≈ 171 µM) | 5 µg/mL (≈ 17.1 µM) | 50 µg/mL (≈ 171 µM) | 50 µg/mL (≈ 171 µM) | 500 µg/mL (≈ 1710 µM) | 500 µg/mL (≈ 1710 µM) | 500 µg/mL (≈ 1710 µM) | 50 µg/mL (≈ 171 µM) | 50 µg/mL (≈ 171 µM) | 5 µg/mL (≈ 17.1 µM) | 500 µg/mL (≈ 1710 µM) | 500 µg/mL (≈ 1710 µM) | 
CCc1ccc(S(=O)(=O)CC(Cl)C#N)s1 (stereo not drawn) [2(b)] | 500 µg/mL (≈ 1900 µM) | 5 µg/mL (≈ 19 µM) | 50 µg/mL (≈ 190 µM) | 500 µg/mL (≈ 1900 µM) | 500 µg/mL (≈ 1900 µM) | 500 µg/mL (≈ 1900 µM) | 100 µg/mL (≈ 379 µM) | 100 µg/mL (≈ 379 µM) | 100 µg/mL (≈ 379 µM) | 5 µg/mL (≈ 19 µM) | 500 µg/mL (≈ 1900 µM) | 50 µg/mL (≈ 190 µM) | 5 µg/mL (≈ 19 µM)
